PMC8396344, “Palmitoylation of Prolactin-Releasing Peptide Increased Affinity for and Activation of the GPR10, NPFF-R2 and NPFF-R1 Receptors: In Vitro Study” (International Journal of Molecular Sciences, 2021)
No end group written: not given here.

What was measured:
GPR10 [1] = biological target: T1, GPR10 (Homo sapiens, UniProt P49683); assay: Competitive binding, [^125I]-PrRP31, CHO-K1 cells expressing GPR10
T1 construct: host or cells: CHO-K1
T1 sequence (P49683 1-370): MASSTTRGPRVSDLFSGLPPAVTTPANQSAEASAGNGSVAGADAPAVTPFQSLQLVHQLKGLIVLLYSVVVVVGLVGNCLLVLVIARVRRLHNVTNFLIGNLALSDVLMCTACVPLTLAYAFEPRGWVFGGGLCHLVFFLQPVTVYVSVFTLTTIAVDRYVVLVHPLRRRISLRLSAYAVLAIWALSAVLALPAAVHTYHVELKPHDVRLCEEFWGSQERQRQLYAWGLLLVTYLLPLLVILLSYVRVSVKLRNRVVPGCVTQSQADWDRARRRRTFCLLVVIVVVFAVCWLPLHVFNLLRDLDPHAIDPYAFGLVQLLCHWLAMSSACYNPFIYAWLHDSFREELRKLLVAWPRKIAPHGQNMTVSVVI

Y1 = biological target: T2, Y1 (Homo sapiens, UniProt P25929); assay: Competitive and saturation binding, [^125I]-PYY, U2OS cells with Y1
T2 construct: host or cells: U2OS
T2 sequence (P25929 1-384): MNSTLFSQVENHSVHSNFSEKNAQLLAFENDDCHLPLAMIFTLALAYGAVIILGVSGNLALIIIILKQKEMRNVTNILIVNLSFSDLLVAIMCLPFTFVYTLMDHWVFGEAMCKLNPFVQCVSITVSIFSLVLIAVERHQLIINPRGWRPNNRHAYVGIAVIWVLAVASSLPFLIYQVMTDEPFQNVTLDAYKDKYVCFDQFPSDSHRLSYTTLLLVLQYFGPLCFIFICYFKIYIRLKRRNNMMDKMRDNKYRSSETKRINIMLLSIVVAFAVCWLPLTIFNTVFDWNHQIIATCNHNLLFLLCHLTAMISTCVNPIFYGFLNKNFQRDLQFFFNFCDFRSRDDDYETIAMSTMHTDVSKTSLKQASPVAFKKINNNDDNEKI
Protocol: Competition binding experiments were performed according to [45]. […] Binding experiments using U2OS cells were optimized and performed in assay buffer (50 mM Tris-Cl pH 7.4, 118 mM NaCl, 5 mM MgCl2, 4.7 mM KCl, 0.1% BSA) for cells stably expressing GHSR and (25 mM HEPES, 120 mM NaCl, 5 mM MgCl2, 4.7 mM KCl, 1 mM CaCl2, 0.5% BSA, 2 g/L glucose) for cells containing receptors Y1, Y2 and Y5. […] Cells were incubated for 60 min at room temperature (RT).
Experiments were carried out in duplicate at least three times, and Ki was calculated using the Cheng-Prusoff equation.
Data were analyzed by GraphPad Software (San Diego, CA, USA) and are presented as the means ± SEM. The saturation and competitive binding experiments were analyzed according to [46] using the Cheng-Prusoff equation [33]. The competitive binding curves were plotted compared to the best fit for single-binding site models, and half maximal inhibitory concentration (IC50) values were obtained from nonlinear regression analysis. From saturation binding experiments, the dissociation constant (Kd) and number of binding sites/cell (Bmax) were calculated. Inhibition constants (Ki) were calculated from IC50 values, Kd and the concentration of radioligands.

NPFF-R2 = biological target: T3, NPFF-R2 (Homo sapiens, UniProt Q9Y5X5); assay: Intracellular Ca^2+ mobilization, AequoScreen CHO-K1 cells with NPFF-R2; type: cell-based; settings: CHO-K1 NPFF-R2 aequorin cells; peptides 10^−12 to 10^−5 M; mean ± SEM, three times in duplicates; read-out: EC50 intracellular Ca^2+ release, NPFF-R2
T3 construct: host or cells: CHO-K1 (AequoScreen, co-expressing aequorin)
T3 sequence (Q9Y5X5 whole entry): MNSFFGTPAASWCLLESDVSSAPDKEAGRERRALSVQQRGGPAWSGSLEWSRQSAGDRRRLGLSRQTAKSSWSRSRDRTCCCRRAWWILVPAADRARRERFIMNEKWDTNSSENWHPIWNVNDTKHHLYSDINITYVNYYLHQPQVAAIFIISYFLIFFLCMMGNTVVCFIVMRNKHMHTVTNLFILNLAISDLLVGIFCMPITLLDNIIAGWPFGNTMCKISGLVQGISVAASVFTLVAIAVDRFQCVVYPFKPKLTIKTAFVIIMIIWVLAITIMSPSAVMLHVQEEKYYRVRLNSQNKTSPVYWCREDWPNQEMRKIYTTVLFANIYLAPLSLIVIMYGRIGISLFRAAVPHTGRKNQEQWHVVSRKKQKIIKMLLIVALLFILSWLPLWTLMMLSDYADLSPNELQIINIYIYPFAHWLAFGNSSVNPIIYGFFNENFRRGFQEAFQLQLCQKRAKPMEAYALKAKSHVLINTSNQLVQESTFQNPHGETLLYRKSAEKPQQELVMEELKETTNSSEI
Protocol: The intracellular Ca^2+ level was measured using the AequoScreen stable CHO-K1 cell line containing NPFF-R2 purchased from Perkin Elmer according to the manufacturer’s protocol. Cells at 80–90% confluence cultured in media without selective antibiotics were detached (PBS pH 7.4 + 0.5 mM EDTA) and centrifuged. Cells resuspended in phenol red-free DMEM with 0.1% protease-free BSA and 5 µM coelenterazine h (Thermo Fisher Scientific Inc. Brand) were seeded at 50,000 cells/well in 96-well plates and incubated in the dark at RT with gentle agitation for 4 h. Peptides were tested at concentrations from 10^−12 to 10^−5 M. Luminescent light emission was recorded using a FlexStation 3 plate reader.
(§1) Ca^2+ release assay data are shown as the percentage of maximal response, and the results were analyzed by nonlinear regression as log agonist versus response using GraphPad software. Data are representative of at least three experiments, each performed in duplicate.

GPR10 [2] = biological target: T1, GPR10; assay: Beta-lactamase reporter gene assay (FRET), GPR10; type: cell-based; settings: β-lactamase assay, agonist mode, CHO-K1 cells; mean ± SEM, 2–3 independent experiments in duplicates
GHSR = biological target: T4, GHSR (Homo sapiens, UniProt Q92847); assay: Beta-lactamase reporter gene assay (FRET), GHSR; type: cell-based
T4 construct: host or cells: U2OS
T4 sequence (Q92847 whole entry): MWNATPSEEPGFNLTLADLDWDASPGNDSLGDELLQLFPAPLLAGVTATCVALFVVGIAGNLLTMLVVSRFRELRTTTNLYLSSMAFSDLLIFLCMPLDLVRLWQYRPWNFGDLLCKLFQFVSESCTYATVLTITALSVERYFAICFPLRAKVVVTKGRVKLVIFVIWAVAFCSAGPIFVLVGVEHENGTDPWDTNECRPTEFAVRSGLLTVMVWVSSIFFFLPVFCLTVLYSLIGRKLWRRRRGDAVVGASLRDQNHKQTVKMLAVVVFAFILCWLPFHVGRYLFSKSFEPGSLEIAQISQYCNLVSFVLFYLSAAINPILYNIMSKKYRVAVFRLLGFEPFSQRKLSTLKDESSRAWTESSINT

GPR10 [3] = biological target: T1, GPR10; assay: Intracellular Ca^2+ mobilization, Fura-2, CHO-K1 cells expressing GPR10; type: cell-based; settings: Fura 2 dye; peptides 10^−12 to 10^−5 M; repeated two times in duplicates
Protocol: Measuring the intracellular Ca^2+ level in CHO-K1 cells containing GRP10 was performed using the calcium-sensitive dye Fura-2 according to the manufacturer’s protocol (Molecular Devices, Sunnyvale, CA, USA). The day before the experiment, cells were seeded at 40,000 cells/well in 96-well plates in growth media and kept at 37 °C in an incubator with 5% CO2 overnight. Peptides were tested at concentrations from 10^−12 to 10^−5 M. Fura-2 fluorescent dye was detected using a FlexStation 3 fluorometric plate reader (Molecular Devices), and excitation was measured at 340 nm and 380 nm and emission at 510 nm.
as §1

SRAHQHSMETRTPDINPAWYTGRGIRPVGRF-NH2 [PrRP31, prolactin-releasing peptide 31, reference compound]
Ki (GPR10 [1]): 4.58 ± 0.66 nM
Ki (Y1): > 10000 nM
EC50 (NPFF-R2): 89.33 ± 0.84 nM
EC50 (GPR10 [2]): 0.53 ± 0.0705 nM
EC50 (GHSR): > 10000 nM

CCCCCCCCCCCCCCCC(=O)N[C@@H](CO)C(=O)N[C@@H](CCCNC(=N)N)C(=O)N[C@H](C(=O)N[C@@H](Cc1c[nH]cn1)C(=O)N[C@@H](CCCNC(=N)N)C(=O)N[C@@H](Cc1c[nH]cn1)C(=O)N[C@@H](CO)C(=O)N[C@@H](CCSC)C(=O)N[C@@H](CCC(=O)O)C(=O)N[C@H](C(=O)N[C@@H](CCCNC(=N)N)C(=O)N[C@H](C(=O)N1CCC[C@H]1C(=O)N[C@@H](CC(=O)O)C(=O)N[C@H](C(=O)N[C@@H](CC(N)=O)C(=O)N1CCC[C@H]1C(=O)N[C@@H](C)C(=O)N[C@@H](Cc1c[nH]c2ccccc12)C(=O)N[C@@H](Cc1ccc(O)cc1)C(=O)N[C@@H](C)C(=O)N[C@@H](CO)C(=O)N[C@@H](CCCNC(=N)N)C(=O)NCC(=O)N[C@H](C(=O)N[C@@H](CCCNC(=N)N)C(=O)N1CCC[C@H]1C(=O)N[C@H](C(=O)NCC(=O)N[C@@H](CCCNC(=N)N)C(=O)N[C@@H](Cc1ccccc1)C(N)=O)C(C)C)[C@@H](C)CC)[C@@H](C)CC)[C@@H](C)O)[C@@H](C)CC)[C@@H](C)O [Palm-PrRP31]
Ki (Y1): 3147 ± 31 nM
Ca^2+ mobilization in CHO-K1 cells expressing GPR10 (GPR10 [3]): stimulated Ca^2+ mobilization
EC50 (NPFF-R2): 14.2 ± 1.52 nM
